Test results taken from paper PMC6273473 (Molecules, 2016).
Where “and” joins values, the source holds several entries; their conditions need not be identical. Identical values can stand only once. Entries after “also recorded” stand apart in the source; their conditions may differ. Counter-ions that a name gives are not always drawn. Like-named read-outs stand apart in the source and are kept apart here.

Assays:
[1] = molecular target: T1, equine serum butyrylcholinesterase (esBChE) (Equus caballus, UniProt P81908); test: BChE inhibition, Ellman's method; format: biochemical; conditions: read-out: BChE % inhibition at 10 µM
T1 construct: BChE from equine serum (13 U/mg; Sigma); purchased Sigma; host or cells: equine serum
T1 sequence (P81908 whole entry): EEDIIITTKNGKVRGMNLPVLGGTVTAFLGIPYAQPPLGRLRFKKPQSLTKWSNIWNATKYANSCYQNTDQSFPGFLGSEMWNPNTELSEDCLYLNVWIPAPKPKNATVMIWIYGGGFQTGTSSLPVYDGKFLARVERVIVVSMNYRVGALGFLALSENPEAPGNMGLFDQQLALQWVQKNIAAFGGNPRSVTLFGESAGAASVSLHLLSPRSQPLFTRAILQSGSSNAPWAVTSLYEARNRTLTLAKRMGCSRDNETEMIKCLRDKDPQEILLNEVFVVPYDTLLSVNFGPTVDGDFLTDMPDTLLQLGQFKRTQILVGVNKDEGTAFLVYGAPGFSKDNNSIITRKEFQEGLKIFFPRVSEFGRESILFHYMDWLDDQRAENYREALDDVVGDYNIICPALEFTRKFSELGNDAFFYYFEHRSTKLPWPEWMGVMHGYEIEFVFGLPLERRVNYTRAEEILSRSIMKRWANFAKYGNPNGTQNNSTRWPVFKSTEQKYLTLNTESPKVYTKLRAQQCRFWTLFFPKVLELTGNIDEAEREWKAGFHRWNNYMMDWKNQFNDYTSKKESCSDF
Description: 2H-Chromen-2-ones 3a–m and 8 were evaluated as inhibitors of electric eel AChE (eeAChE), equine serum butyrylcholinesterase (esBChE) and rat MAOs (rMAO-A and rMAO-B). In vitro enzymatic assays on ChEs were accomplished through the well-known spectrophotometric Ellman’s method [20].

P-gp (MDR1) = test: in vitro; conditions: dog, MDCK-MDR1, pH 7.4
rMAO-A = molecular target: T2, rMAO-A (Rattus norvegicus, UniProt P21396); test: rat MAO-A inhibition, kynuramine spectrophotometric assay; format: biochemical; conditions: rat brain homogenates; for inhibition at 10 µM: read-out: MAO-A % inhibition at 10 µM
T2 construct: from tissue; host or cells: rat brain mitochondrial homogenate
T2 sequence (P21396 1-526): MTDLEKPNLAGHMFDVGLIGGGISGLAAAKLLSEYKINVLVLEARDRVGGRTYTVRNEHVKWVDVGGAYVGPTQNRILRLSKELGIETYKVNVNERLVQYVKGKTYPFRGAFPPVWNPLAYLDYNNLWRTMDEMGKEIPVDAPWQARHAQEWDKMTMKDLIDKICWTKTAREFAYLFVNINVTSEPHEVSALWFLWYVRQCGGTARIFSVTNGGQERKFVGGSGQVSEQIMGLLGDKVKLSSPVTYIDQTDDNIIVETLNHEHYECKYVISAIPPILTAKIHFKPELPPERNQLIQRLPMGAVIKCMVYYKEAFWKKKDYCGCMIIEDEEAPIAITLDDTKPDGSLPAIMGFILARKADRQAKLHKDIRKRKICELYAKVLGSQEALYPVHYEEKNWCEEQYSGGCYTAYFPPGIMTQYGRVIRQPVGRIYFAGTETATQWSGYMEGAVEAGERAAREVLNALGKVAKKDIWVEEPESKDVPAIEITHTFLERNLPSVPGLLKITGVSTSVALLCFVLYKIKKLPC
Description: (§1) MAO inhibitory activities were measured on rat brain mitochondrial homogenates [21].
(§2) The rMAO inhibitory activity of compounds in Table 1 was assessed using a continuous spectrophotometric assay [28], monitoring the rate of oxidation of the nonselective nonfluorescent MAO substrate kynuramine to 4-hydroxyquinoline, as previously reported [21]. […] Finally, IC50 values were determined by nonlinear regression of MAO inhibition vs. -log of the concentration plots, using the program Origin, Version 6.0 (Microcal Software Inc., Northampton, MA, USA).

[2] = molecular target: T3, electric eel AChE (eeAChE) (Electrophorus electricus, UniProt O42275); test: biochemical
T3 construct: purchased Sigma Aldrich, Milan, Italy
T3 sequence (O42275 24-633): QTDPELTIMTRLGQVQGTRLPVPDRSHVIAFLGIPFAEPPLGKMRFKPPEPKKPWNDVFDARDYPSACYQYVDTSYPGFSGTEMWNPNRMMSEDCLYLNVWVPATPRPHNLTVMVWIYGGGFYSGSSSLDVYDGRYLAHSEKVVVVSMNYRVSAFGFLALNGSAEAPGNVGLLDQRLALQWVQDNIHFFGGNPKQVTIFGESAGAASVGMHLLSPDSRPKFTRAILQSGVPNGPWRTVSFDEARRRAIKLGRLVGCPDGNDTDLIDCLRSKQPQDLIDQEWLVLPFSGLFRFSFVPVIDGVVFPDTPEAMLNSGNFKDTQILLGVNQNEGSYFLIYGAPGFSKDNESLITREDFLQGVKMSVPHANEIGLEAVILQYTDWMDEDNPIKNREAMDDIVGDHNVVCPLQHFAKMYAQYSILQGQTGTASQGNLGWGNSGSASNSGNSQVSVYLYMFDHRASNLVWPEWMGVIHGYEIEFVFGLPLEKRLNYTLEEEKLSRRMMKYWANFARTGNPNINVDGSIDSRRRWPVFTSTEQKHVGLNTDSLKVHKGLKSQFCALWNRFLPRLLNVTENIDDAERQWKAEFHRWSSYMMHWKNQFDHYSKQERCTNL

rMAO-B = molecular target: T4, rMAO-B (Rattus norvegicus, UniProt P19643); test: rat MAO-B inhibition, kynuramine spectrophotometric assay; format: biochemical; conditions: for inhibition at 10 µM: read-out: MAO-B % inhibition at 10 µM
T4 construct: from tissue; host or cells: rat brain mitochondrial homogenate
T4 sequence (P19643 1-520): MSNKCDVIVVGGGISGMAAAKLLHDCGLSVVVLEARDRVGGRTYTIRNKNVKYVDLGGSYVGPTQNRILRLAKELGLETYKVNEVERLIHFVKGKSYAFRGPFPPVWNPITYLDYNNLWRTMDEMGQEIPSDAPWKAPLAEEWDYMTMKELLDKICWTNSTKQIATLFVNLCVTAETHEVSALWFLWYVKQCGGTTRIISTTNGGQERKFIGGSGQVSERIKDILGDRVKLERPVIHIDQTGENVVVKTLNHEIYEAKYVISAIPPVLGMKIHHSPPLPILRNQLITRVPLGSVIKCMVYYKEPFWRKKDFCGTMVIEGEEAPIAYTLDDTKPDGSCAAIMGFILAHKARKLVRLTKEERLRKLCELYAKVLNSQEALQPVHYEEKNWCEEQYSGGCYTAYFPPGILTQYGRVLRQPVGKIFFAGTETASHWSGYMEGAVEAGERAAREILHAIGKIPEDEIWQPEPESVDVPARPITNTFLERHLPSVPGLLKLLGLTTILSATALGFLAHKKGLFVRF
Description: as §1, §2

SH-SY5Y cells [3] = test: Cytotoxicity, MTT assay; format: cell-based; conditions: 24 h incubation, 0.1–50 µM
Description: Human neuroblastoma cells SH-SY5Y were maintained at 37 °C in a humidified incubator containing 5% CO2 in DMEM nutrient (Lonza) supplemented with 10% heat inactivated FBS, 2 mM L-glutamine, 100 U/mL penicillin and 100 µg/mL streptomycin. Cells were dispensed into 96-well microtiter plates at a density of 10,000 cells/well. […] Then, the plates were incubated at 37 °C for 24 h. An amount of 10 µL of 0.5% w/v MTT was further added to each well, and the plates were incubated for an additional 3 h at 37 °C. Finally, the cells were lysed by the addition of 100 µL of DMSO/EtOH 1:1 (v/v) solution.
Untreated cells were used as the control.

SH-SY5Y cells [4] = test: Neuroprotection against oxidative stress insults, MTT assay; format: cell-based, human
Description: Therefore, a preliminary evaluation of the cytotoxicity and neuroprotective efficacy of this hit compound was undertaken in the human SH-SY5Y neuroblastoma cell line by following the 3-(4,5-dimethylthiazol-2-yl)-2,5-diphenyl-tetrazolium bromide (MTT) assay [22].
Human neuroblastoma SH-SY5Y cells were dispensed into 96-well microtiter plates at a density of 10,000 cells/well. […] The cell viability was determined by the MTT assay and analyzed as above described. Each compound was tested in triplicate, and the experiments were repeated three times. Statistical significance was assigned to p < 0.01 and calculated using a one-way analysis of variance (ANOVA) followed by the Bonferroni post hoc tests (GraphPad Prism vers. 5).
Results are expressed as the percentage of viable cells, and data represent the means ± SD (n = 3).

[5] = determined after 30 min pre-incubation
[6] = from electric eel, read-out: AChE IC50

| SMILES | inhibition at 10 µM ([1]; from equine serum, 10 µM) [%] | IC50 ([2]; AChE IC50, from electric eel) | inhibition at 10 µM (rMAO-A) [%] | inhibition at 10 µM (rMAO-B; rat brain homogenates) [%] | IC50 [2, 6] | further results |
| --- | --- | --- | --- | --- | --- | --- |
| C#CCN(C)Cc1cc2cc(OC)c(OC)cc2oc1=O.Cl [Compound 3h, 6,7-Dimethoxy-3-{[methyl(prop-2-yn-1-yl)amino]methyl}-2H-chromen-2-one hydrochloride] | < 5 | 8.99 µM and 9 µM |  |  |  | Papp A→B at 120 min, 75 µM (P-gp (MDR1)): 22.7 ×10⁻⁶ cm/s; Papp B→A at 120 min, 75 µM (P-gp (MDR1)): 21.8 ×10⁻⁶ cm/s; inhibition at 10 µM (rMAO-A; [5]): < 5%; IC50 (rMAO-B): 0.0028 ± 0.0004 µM; P-gp substrate (MDCKII-MDR1 cells): not likely to be a substrate for P-gp; also recorded: did not result in a glycoprotein-p (P-gp) substrate; Cytotoxicity (viability of SH-SY5Y cells) (SH-SY5Y cells [3]): negligible cytotoxicity; also recorded: low cytotoxicity; Neuroprotection against oligomycin-A (SH-SY5Y cells [4]; 0.1 µM compound, oligomycin-A 30 µM, 24 h co-incubation): moderate neuroprotection; also recorded: promising neuroprotective effect; Neuroprotection against rotenone (SH-SY5Y cells [4]; 0.1 µM compound, rotenone 75 µM, 24 h co-incubation): moderate neuroprotection; also recorded: promising neuroprotective effect; Neuroprotection (cell survival) (SH-SY5Y cells [4]; 1 µM compound, 24 h co-incubation with H2O2 195 µM, oligomycin-A 30 µM or rotenone 75 µM): no increase of cell survival |
| COc1cc2cc(CN(C)Cc3cccc(Cl)c3)c(=O)oc2cc1OC [Compound 3g, 3-{[(3-Chlorobenzyl)(methyl)amino]methyl}-6,7-dimethoxy-2H-chromen-2-one hydrochloride] | 19 | 4.4 ± 1.1 µM | 7 | < 5 |  |  |
| COc1ccc2cc(CN(C)Cc3cccc(C#N)c3)c(=O)oc2c1 [Compound 3e, 3-{[[(7-Methoxy-2-oxo-2H-chromen-3-yl)methyl](methyl)amino]methyl}benzonitrile] | < 5 |  | 9.2 | < 5 | 8.4 ± 0.3 µM |  |
| NC(=O)CNCc1cc2ccccc2oc1=O [Compound 3a, N^2-[(2-oxo-2H-Chromen-3-yl)methyl]glycinamide] | 6.2 |  | < 5 | < 5 | 12 ± 1 µM |  |
| CNC(=O)CNCc1cc2cc(OC)c(OC)cc2oc1=O [Compound 3m, N^2-[(6,7-Dimethoxy-2-oxo-2H-chromen-3-yl)methyl]-N^1-methylglycinamide] | 11 |  | < 5 | < 5 | 7.7 ± 0.4 µM |  |
| COc1cc2cc(CNCc3ccccc3)c(=O)oc2cc1OC [Compound 3j, 3-[(Benzylamino)methyl]-6,7-dimethoxy-2H-chromen-2-one] | 27 |  | < 5 | < 5 | 2.78 µM and 2.8 µM |  |
| COc1cc2cc(CNCC(N)=O)c(=O)oc2cc1OC [Compound 3l, N^2-[(6,7-Dimethoxy-2-oxo-2H-chromen-3-yl)methyl]glycinamide] | 10 |  | < 5 | < 5 | 8 ± 1.2 µM |  |
| C#CCN(C)Cc1cc2ccccc2oc1=O [Compound 3c, 3-{[Methyl(prop-2-yn-1-yl)amino]methyl}-2H-chromen-2-one] | < 5 |  |  |  | 8.4 ± 0.5 µM | IC50 (rMAO-A; [5]): 7 ± 1.4 µM; IC50 (rMAO-B; rat brain homogenates, determined after 30 min pre-incubation, read-out: MAO-B IC50): 0.377 ± 0.014 µM |
| C#CCN(C)Cc1cc2ccc(OC)cc2oc1=O [Compound 3f, 7-Methoxy-3-{[methyl(prop-2-yn-1-yl)amino]methyl}-2H-chromen-2-one hydrochloride] |  | 14 ± 1 µM |  |  |  | inhibition at 10 µM [1]: 13% |
| COc1ccc2cc(CN(C)Cc3cccc(F)c3)c(=O)oc2c1 [Compound 3d, 3-{[(3-Fluorobenzyl)(methyl)amino]methyl}-7-methoxy-2H-chromen-2-one] | 8.5 |  | 6 | < 5 | 6.6 ± 0.1 µM |  |
| CN(Cc1cccc(F)c1)Cc1cc2ccccc2oc1=O [Compound 3b, 3-{[(3-Fluorobenzyl)(methyl)amino]methyl}-2H-chromen-2-one hydrochloride] | 15 | 6.8 ± 0.1 µM | < 5 | < 5 |  |  |
| COc1cc2cc(CNCc3ccc(C#N)cc3)c(=O)oc2cc1OC [Compound 3k, 4-({[(6,7-Dimethoxy-2-oxo-2H-chromen-3-yl)methyl]amino}methyl)benzonitrile] | 13 |  | 20 | < 5 | 8.4 ± 1.1 µM |  |
| C#CCN(C)Cc1cc2cc(OC)c(O)cc2oc1=O [Compound 8, 7-Hydroxy-6-methoxy-3-{[methyl(prop-2-yn-1-yl)amino]methyl}-2H-chromen-2-one] | < 5 |  |  |  | 9.3 ± 0.4 µM | inhibition at 10 µM (rMAO-A; [5]): 35%; inhibition at 10 µM (rMAO-B; rat brain homogenates, determined after 30 min pre-incubation): 11% |
| CNCc1cc2cc(OC)c(OC)cc2oc1=O [Compound 3i, 6,7-Dimethoxy-3-[(methylamino)methyl]-2H-chromen-2-one hydrochloride] | 10 | 13 ± 1 µM | < 5 | < 5 |  |  |
